The assay deals with Aliivibrio fischeri. In words: Tested for the ability to interfere with the induction of luminescence by N-3-oxohexanoyl-L-homoserine lactone in the Vibrio fischeri QS system. Format: functional, organism-based.

Molecule `CCCCCS(=O)(=O)NC1CCOC1=O` (centres undefined) showed an IC50 of 2 µM. As for `CCCCS(=O)(=O)NC1CCOC1=O` (centres undefined), the figure is 12 µM; as for `CCCCCCS(=O)(=O)NC1CCOC1=O` (centres undefined), 6.5 µM; as for `O=C(CCCc1ccccc1)NC1CCOC1=O` (centres undefined), 2 µM. As for `CCCCCCCCS(=O)(=O)NC1CCOC1=O` (centres undefined), the figure is 10 µM; as for `O=C1OCCC1NS(=O)(=O)CCCc1ccccc1` (centres undefined), 20 µM.

For `O=C1OCCC1NS(=O)(=O)CCc1ccccc1` (centres undefined), inhibition was half-maximal at 3 µM (IC50). As for `O=C(CC(=O)NC1CCOC1=O)Cc1ccccc1` (centres undefined), it took 2 µM to reach half-maximal inhibition (IC50). The same measure for `CCCCCCCS(=O)(=O)NC1CCOC1=O` (centres undefined): 9 µM.

As a reminder, the IC50 is the midpoint of a concentration-inhibition curve. Higher therefore signals weaker potency.
